Measurements from patent publication US20110318396A1, “DERMATOLOGICAL/COSMETIC COMPOSITIONS COMPRISING A RETINOID AND BENZOYL PEROXIDE” (Galderma Research & Development, priority 2006, published 2011).
Read-outs that look alike come from different tables or passages of the source.

Legend:
[1] = Chemical stability: assay of adapalene by internal calibration in HPLC; type: physicochemical; settings: composition of Example 2 a); AT; T 3 months
From the text: Assay of the active by internal calibration in HPLC.
At the starting time (T0) the composition is considered to contain 100% of adapalene. Concentration of adapalene measured in % relative to T0: […]

[2] = in presence of the formulation based on benzoyl peroxide, cited from earlier work; for Retinoid degraded: calculated
[3] = Chemical stability: assay of benzoyl peroxide by internal calibration in HPLC; type: physicochemical; settings: composition of Example 2 a)
From the text: Benzoyl Peroxide: Assay of the active by internal calibration in HPLC. At the starting time (T0) the composition is considered to contain 100% of benzoyl peroxide. Concentration of benzoyl peroxide measured in % relative to T0: […]

[4] = in PEG 400 and ethanol; cited from earlier work
[5] = cited from earlier work; for Degradation time: 40° C.

COc1ccc(-c2ccc3cc(C(=O)O)ccc3c2)cc1C12CC3CC(CC(C3)C1)C2 [Adapalene, 6-(3-(1-adamantyl)-4-methoxyphenyl)-2-naphthoic acid]
Concentration of adapalene measured in % relative to T0 [1]: 97.7%
Degradation of the retinoid ([2]; over 24 hours): no degradation

O=C(OOC(=O)c1ccccc1)c1ccccc1 [Benzoyl Peroxide, benzoyl peroxide]
Concentration of benzoyl peroxide measured in % relative to T0 ([3]; 40° C., T 1 month): 96.3%
Concentration of benzoyl peroxide measured in % relative to T0 ([3]; 40° C., T 2 months): 81.6%
Concentration of benzoyl peroxide measured in % relative to T0 ([3]; 40° C., T 3 months): 88.7%
Concentration of benzoyl peroxide measured in % relative to T0 ([3]; AT, T 0): 99.2%
Concentration of benzoyl peroxide measured in % relative to T0 ([3]; AT, T 3 months): 94.8%
Solubility [4]: particularly soluble
Degradation time ([5]; in solution in PEG 400 (0.5 mg/g)): 1.4 days
Degradation time ([5]; in solution in ethanol): 29 days
Degradation time ([5]; in solution in propylene glycol): 53 days
Degradation in suspension (dispersed form) ([5]; in water and propylene glycol, kept for 90 days): not degraded

CC1=C(/C=C/C(C)=C/C=C/C(C)=C/C(=O)O)C(C)(C)CCC1 [tretinoin]
Retinoid degraded ([2]; in 2 hours): 50%
Retinoid degraded ([2]; in 24 hours): 95%
